One data set concerns HeLa cells. Briefly: MTT assay, (photo)cytotoxicity toward HeLa cells. Format: cell-based. The procedure: (§1) HeLa and HEK-293 cells were seeded in a 96-well flat-bottomed microplate (≈ 10,000 cells per well) in growth medium (100 µL) and incubated at 37°C under a 5% CO2 atmosphere for […]
(§2) 48 h. The growth medium was removed, and then incubated with either fresh growth medium or complexes 1a – 3a, with concentrations ranging from 10–5 to 10−8 M, in growth medium/DMSO (99:1, v/v) at 37°C for 3 h. The growth medium was removed and replaced with either fresh growth medium or ICPrc-Bn (200 µM) in growth medium/DMSO (99:1, v/v) at 37°C for 4 h. Wells containing untreated cells were used as a blank control. Wells containing cells treated with ICPrc-Bn (200 µM) alone for 4 h were used as a complex-free control. For evaluation of photocytotoxicity, the treated cells were incubated in phenol red-free growth medium (100 µL). One of the microplates was irradiated at 365 nm (5 mW cm−2) with an LED cellular photocytotoxicity irradiator (PURI Materials, Shenzhen, China) for […], whereas the other one was kept in the dark for 10 min. The cells were then incubated in fresh growth medium (100 µL) in the dark for 24 h. A solution containing MTT in PBS (10 µL, 5 mg mL−1) and fresh growth medium (90 µL) was added to each well. The microplate was incubated at 37°C for 4 h. The growth medium was removed, and DMSO (200 µL) was added to each well.
(§3) After 20 min, the absorbance of the solutions at 570 nm was measured with a Multiskan SkyHigh Microplate Spectrophotometer (Thermo Scientific). The IC50 values of the complex were determined from the dose dependence of surviving cells after the treatment using the OriginPro 8.0 software package. For dual-release studies, the cells were incubated with complex 3a, with concentrations ranging from 10–5 to 10−8 M, in growth medium/DMSO (99:1, v/v) at 37°C for 3 h, and replaced with either fresh growth medium or ICPrc-Dox (10 or 50 µM) in growth medium/DMSO (99:1, v/v) at 37°C for 4 h. Wells containing cells treated with ICPrc-Dox (10 or 50 µM) alone for 4 h were used as a complex-free control. Wells containing cells treated with cisplatin (3 h) or Dox (4 h), with concentrations ranging from 10–5 to 10−8 M, in growth medium/DMSO (99:1, v/v) at 37°C were used as positive controls. Furthermore, to evaluate the maximum therapeutic effect of the dual release, concentrations of complex 3b and Dox were serially diluted in a 1:1 ratio to serve as a reference, assuming similar cellular uptake […]
(§4) of complex 3a with 3b and ICPrc-Dox with Dox. Briefly, HeLa cells were incubated with complex 3b, with concentrations ranging from 10–5 to 10−8 M, in growth medium/DMSO (99:1, v/v) at 37°C for 3 h, and replaced with either fresh growth medium or Dox, with concentrations ranging from 10–5 to 10−8 M, in growth medium/DMSO (99:1, v/v) at 37°C for 4 h.
A general note: Tetrazolium dyes change colour on reduction, which living cells bring about.

The next data set concerns HEK‐293 cells. The data set is described as follows: MTT assay, (photo)cytotoxicity toward HEK-293 cells. Format: cell-based. The protocol: as §1, §2
(§5) After 20 min, the absorbance of the solutions at 570 nm was measured with a Multiskan SkyHigh Microplate Spectrophotometer (Thermo Scientific). The IC50 values of the complex were determined from the dose dependence of surviving cells after the treatment using the OriginPro 8.0 software package. […]

Data set [1] in a line: MTT assay, (photo)cytotoxicity toward HeLa cells. In kind it is cell-based. The note with it: human, HeLa cells, read-out: cell viability. The protocol:
as §1, §2, §3, §4

Data set [2] is described as follows: MTT assay, (photo)cytotoxicity toward HEK-293 cells. In kind it is cell-based. As to conditions: human, HEK-293 cells, read-out: cell viability. The procedure:
as §1, §2, §5

Data set [3] is described as follows: Stability of ICPr/ICPrc derivatives in serum (HPLC). In kind it is in vitro ADME. As to conditions: 25 µM in 25% FBS, 37 °C, dark. The procedure: was incubated with ICPr-coum (80 µM) in aerated McIlvaine buffer (pH 7.4 or 5.0)/CH3CN (4:1, v/v) at 37°C. The reactions at different time points were quenched by the addition of 900 µL of cold H2O/CH3CN (1:1, v/v) and then analyzed by RP-HPLC. The HPLC analysis was conducted following the elution conditions specified for the reaction kinetic studies. The release yields were plotted against time. The half-lives (t1/2) were defined as the time required for the concentration of the reactant to decrease by half of its initial quantity, obtained through an exponential fit of the curve. The release yields were defined as the quantity of the final product, umbelliferone, liberated in the reaction. Furthermore, to evaluate the effect of ether versus carbamate linkages within the ICPr/ICPrc moiety on release kinetics, the half-lives of ICPr-coum, ICPr-fluorescein, and ICPrc-Dox were determined by HPLC analyses. Equimolar mixtures of complex 3a (50 µM) and each ICPr/ICPrc derivative (50 µM) were incubated in aerated McIlvaine buffer (pH 7.4)/DMSO (4:1, v/v) at 37°C. The reactions at different time points were quenched by the addition of 900 µL of cold H2O/CH3CN (1:1, v/v) and then […]
Stability of ICPr/ICPrc Derivatives in Serum
ICPr-fluorescein or ICPrc-Dox (25 µM) was incubated in 25% FBS at 37 °C in the dark for 48 h. […]

A short description of data set [4]: 1O2 generation quantum yield from 1O2 emission at around 1270 nm. In kind it is physicochemical. The note with it: aerated CH3CN, 298 K; λex = 350 nm; reference phenalenone. The protocol: (§6) The ^1O2 generation efficiencies of the complexes were evaluated by monitoring the emission band of ^1O2 centered at around 1270 nm^[ [34], [35] ^] in aerated CH3CN. […] Considering the pH‐dependent emission properties of complexes 1b–3b, we believe that their ^1O2 photosensitization efficiencies would also be influenced by pH. Taking complex 3b as an example, its ^1O2 generation efficiency was evaluated in aerated McIlvaine buffer solutions at various pH levels by the 9,10‐anthracenediyl‐bis(methylene)dimalonic acid (ABDA) assay.^[ [36] ^] […] Thus, the TzMe complexes are anticipated to function as pH‐sensitive phosphorogenic bioorthogonal probes, enabling simultaneous detection and photodynamic therapy in lysosomal compartments (pH ≈ 4.5–5.0)^[ [37], [38] ^] and acidic TME.

The nature of data set [5]: 1O2 generation quantum yield by ABDA assay in McIlvaine buffer. The note with it: 298 K. Format: physicochemical. The protocol:
as §6, with “TME. […]” for “TME.”
where the subscripts s and r refer to the sample and reference solutions, respectively, Φ is 1O2 quantum yield, m is the slope of a linear fit of the change of absorbance at 378 nm against the irradiation time, B is 1 – 10–AL, A is absorbance at the excitation wavelength, and L is path […]
To confirm the liberation of ICPr/ICPrc -caged compounds during the reaction, the concurrent release of compounds from their respective tetrazine and ICPr/ICPrc caging groups was studied by RP-HPLC analysis. Complex 3a (50 µM) and ICPr -coum (40 µM) were incubated in aerated McIlvaine buffer (pH 7.4)/DMSO (4:1, v/v) at 37°C for 18 h. The reaction mixture was subjected to HPLC analysis. The HPLC analysis was performed using an Agilent analytical column (ZORBAX Eclipse Plus C18 column: 4.6 × 150 mm, 5 µm) with a linear gradient of 0 − 100% solvent B over 12 min and a flow rate of 1 mL min −1. The emission was monitored at the emission peak maxima of the released products, umbelliferone (also known as 7 - hydroxycoumarin) (λex = 350 nm, λem = 460 nm) and complex 3b (λex = 350 nm, λem = 562 nm). […] The emission spectrum was recorded on a HORIBA FluoroMax-4 spectrofluorometer. […] The reaction was monitored by HPLC analyses after incubation for 4 and 24 h.

Where [6] appears, read: – ICPrc‐Bn, irradiation at 365 nm (5 mW cm−2) for 5 min, read-out: IC50,light.
[7] abbreviates: ICPrc‐Bn (200 µM) alone for 4 h, subsequently irradiated.
The mark [8] stands for this setting: ICPrc‐Dox (10 or 50 µM) alone, dark and irradiation.

Like-named read-outs stand apart in the source and are kept apart here.

As usually defined, the IC50 is the concentration needed to halve the response being measured. Turning to `N.N.[Cl][Pt][Cl]` [Cisplatin, cisplatin, reference compound], the IC50 was over 50 µM in the data set with HeLa cells (– ICPrc‐Bn (complex 3 h, fresh medium 4 h; cisplatin 3 h), dark, read-out: IC50,dark); over 50 µM in the data set on HeLa cells (setting [6]); over 50 µM in the data set on HEK‐293 cells (– ICPrc‐Bn, dark, read-out: IC50,dark); over 50 µM in the data set with HEK‐293 cells (setting [6]).
As to `COc1cccc2c1C(=O)c1c(O)c3c(c(O)c1C2=O)C[C@@](O)(C(=O)CO)C[C@@H]3O[C@H]1C[C@H](N)[C@H](O)[C@H](C)O1` [Dox, doxorubicin, reference compound], the IC50 in the data set on HeLa cells (Homo sapiens, Table 2, no ICPrc‐Dox (3a 3 h then fresh medium 4 h; Dox 4 h), dark, read-out: IC50,dark) is 5.8 ± 0.6 µM; in the data set on HeLa cells (Homo sapiens, light or radiation study, 5 min, Table 2, no ICPrc‐Dox, irradiation at 365 nm (5 mW cm−2) for 5 min, read-out: IC50,light) it was 5.3 ± 0.6 µM; with HEK‐293 cells (Homo sapiens, HEK293, Table 2, no ICPrc‐Dox, dark, read-out: IC50,dark), over 50 µM; in the data set with HEK‐293 cells (Homo sapiens, HEK293, light or radiation study, 5 min, Table 2, no ICPrc‐Dox, irradiation at 365 nm (5 mW cm−2) for 5 min, read-out: IC50,light), 43 ± 2 µM. Moreover, the “PI (IC50,dark/IC50,light)” value in the data set on HeLa cells (Table 2, no ICPrc‐Dox) is 1; with HEK‐293 cells (Table 2, no ICPrc‐Dox), over 1.
In general, viability refers to a per cent measure of how many cells are alive, often set against a control. With `[C-]#[N+]CCCOC(=O)NCc1ccccc1` [ICPrc‐Bn, 3‐isocyanopropyl benzylcarbamate, reference compound], the viability at 4 h, 200 µM in data set [1] (setting [7]) and in data set [2] (setting [7]) was over 98% throughout.
For `[C-]#[N+]CCCOC(=O)NC1CC(OC2CC(O)(C(=O)CO)Cc3c(O)c4c(c(O)c32)C(=O)c2c(OC)cccc2C4=O)OC(C)C1O` (centres unmarked) [ICPrc‐Dox, N-(3-isocyanopropyl-1-carbamoyl)doxorubicin, reference compound], the viability at 4 h in data set [1] (setting [8]) and in data set [2] (setting [8]) was over 98% throughout. The “time stable in serum” value in data set [3] is given as “over 48 h”.
With `[C-]#[N+]CCCOc1ccc2c(-c3ccccc3C(=O)O)c3ccc(=O)cc-3oc2c1` [ICPr‐fluorescein], in data set [3], the “time stable in serum” value is “at least 48 h”.
For the compound `O=S(=O)([O-])C(F)(F)F.O=[C]=[Re-2]1(=[C]=O)(=[C]=O)([n+]2cccc(O)c2)[n+]2ccc(-c3ccccc3)c3ccc4c(-c5ccccc5)cc[n+]1c4c32` [complex 3b, [Re(N^N)(CO)3(py‐OH)](CF3SO3)], the “PI (IC50,dark/IC50,light)” value in the data set with HeLa cells (Table S10) turned out to be 6. For the same compound, the IC50 in the data set on HeLa cells (Table S10, 3b 3 h then fresh medium or Dox (1:1 ratio) 4 h, dark, read-out: IC50,dark) was 29 µM; in the data set with HeLa cells (Table S10, 3b 3 h then fresh medium or Dox (1:1 ratio) 4 h, irradiation at 365 nm (5 mW cm−2) for 5 min, read-out: IC50,light), 5.1 µM. For the same compound, the “1O2 generation quantum yield (ΦΔ)” value in data set [4] is reported as 0.63; in data set [5] (aerated McIlvaine buffer pH 3.0/CH3CN (4:1, v/v)) it was 0.24; in data set [5] (aerated McIlvaine buffer pH 5.0/CH3CN (4:1, v/v)), 0.12; in data set [5] (aerated McIlvaine buffer pH 7.4/CH3CN (4:1, v/v)), “Negligible”.

Source of the values: article PMC12684313, “Controlled Dual Activation of Rhenium(I) Photosensitizers and Profluorophores/Prodrugs via a Dissociative Bioorthogonal Tetrazine–Isonitrile Reaction” (Angewandte Chemie (International Ed. in English), 2025).
